According to patent publication US12337005B2, “Methods of treating thrombosis” (UNIVERSITY OF IOWA RESEARCH FOUNDATION, priority 2020, dated 2025):

Columns and labels:
Assay type in all cases: cell-based
human platelets [1] = assay: Glucose uptake assay, human platelets; conditions: human platelets stimulated with convulxin or thrombin; ML265 pre-treated (50 and 100 μM)
Method: (§1) Glucose uptake was determined in activated versus non-activated platelets using 10 mM ^14C-2-deoxy-glucose. Washed platelets (2×10^8/mL) treated with vehicle (DMSO) or ML265 (50 and 100 μM) were incubated in 1× Tyrode buffer and stimulated with convulxin or thrombin for 10 minutes, placed on ice and then centrifuged at 4000 rpm for 5 minutes. The pellets were washed with cold 1×PBS and solubilized in 1N NAOH. Radioactive counts were determined using a Perkin Elmer TriCarb 2800TR liquid scintillation counter.

PKM2 dimers = biological target: T1, PKM2 dimers (Homo sapiens, UniProt P14618); assay: Native Western blot of PKM2 dimer and tetramer in stimulated human platelets; conditions: human platelets stimulated with convulxin (100 ng/ml) or thrombin (0.1 U/mL); vs vehicle
T1 construct: decreased PKM2 dimers in the human platelets stimulated with convulxin or thrombin; endogenous in cells; host or cells: human platelets from healthy volunteers
Method: To obtain human platelets, blood was collected from healthy volunteers free from antiplatelet medication. Informed consent was taken. Platelets were prepared as described. Briefly, blood was collected in tubes containing anticoagulant citrate dextrose solution A and centrifuged at 180 g for 20 min. After addition of apyrase (0.6 U/ml) to PRP, platelets were sedimented by centrifugation at 800 g for 15 min. Cells were washed in buffer A (20 mM HEPES, 138 mM NaCl, 2.9 mM KCl, 1 mM MgCl2, 0.36 mM NaH2PO4, 1 mM EGTA (ethylene glycol tetraacetic acid), supplemented with 5 mM glucose, pH 6.2). Platelets were finally resuspended in buffer B (pH 7.4), which was the same as buffer ‘A’ but without EGTA and apyrase.
Platelet proteins were separated on 4-20% SDS-PAGE (sodium dodecyl sulfate-polyacrylamide gel electrophoresis) gradient gels and electrophoretic transferred to PVDF (polyvinylidene fluoride) membrane by using Bio-Rad western blotting system. For PKM2 dimer and tetramer study 6% native gels are used. Membranes were blocked with 5% BSA or skimmed milk in 10 mM Tris-HCl, 150 mM NaCl, pH 8.0 (TBS) containing 0.05% Tween-20 for one hour at room temperature. […] Blots were developed using enhanced chemiluminescence and quantified using Image J software from NIH (Bethesda, MD, USA).

human platelets [2] = assay: Lactate measurement, human platelets; conditions: human platelets stimulated with convulxin or thrombin; ML265 pre-treated (50 or 100 μM)
Method: Washed platelets (5×10^8 platelets/mL) in DMEM (5 mM HEPES, 25 mM glucose, 1 mM pyruvate and 2 mM glutamine) were pre-treated with 50 or 100 μM of ML265 or vehicle (DMSO) for 10 mins and stimulated by convulxin (200 ng/ml) for 1 hr. Cells were centrifuged and supernatant was collected. Levels of L-lactate in supernatant were determined using a glycolysis cell based assay kit (Cayman; Item No. 600450) according to the manufacturer's instructions.

mouse platelets = assay: Glucose uptake assay, mouse platelets; conditions: mouse platelets stimulated with convulxin or thrombin
Method: as §1

T1 sequence (P14618 2-531 limits assumed): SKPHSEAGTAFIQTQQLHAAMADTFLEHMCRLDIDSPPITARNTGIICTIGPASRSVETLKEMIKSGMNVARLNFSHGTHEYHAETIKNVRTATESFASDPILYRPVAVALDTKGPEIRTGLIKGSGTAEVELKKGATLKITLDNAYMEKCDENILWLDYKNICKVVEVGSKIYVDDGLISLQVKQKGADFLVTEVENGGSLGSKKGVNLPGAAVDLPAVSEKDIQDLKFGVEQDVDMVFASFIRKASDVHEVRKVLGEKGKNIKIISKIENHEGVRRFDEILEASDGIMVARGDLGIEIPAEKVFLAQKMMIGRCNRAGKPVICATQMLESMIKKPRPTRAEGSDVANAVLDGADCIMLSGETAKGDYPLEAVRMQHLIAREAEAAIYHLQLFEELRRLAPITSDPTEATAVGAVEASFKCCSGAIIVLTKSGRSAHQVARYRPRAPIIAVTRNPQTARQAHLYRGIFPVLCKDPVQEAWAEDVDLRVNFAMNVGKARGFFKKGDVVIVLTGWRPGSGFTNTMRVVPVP

## Cn1c2cc([S+](C)[O-])sc2c2cnn(Cc3cccc(N)c3)c(=O)c21 (stereo not shown) [ML265, 6-[(3-aminophenyl)methyl]-4,6-dihydro-4-methyl-2-(methylsulfinyl)-5H-thieno[2′,3′:4,5]pyrrolo[2,3-d]pyridazine-5-one]
Human platelets [1]
  glucose uptake: significantly decreased
PKM2 dimers
  PKM2 dimers: decreased
Human platelets [2]
  lactate production: significantly decreased
Mouse platelets
  glucose uptake: reduced
